pEC50: −log10 of the molar value.
Each molecule was assayed against human APJ receptor (Homo sapiens (Human), UniProt P35414) (assay: [35S]GTPγS binding assay on membranes from CHO cells stably expressing human APJ receptor). Conditions: means of several independent experiments, read-out: Activity hAPJ SPA EC50 IP.
Sequence of human APJ receptor (P35414 whole entry): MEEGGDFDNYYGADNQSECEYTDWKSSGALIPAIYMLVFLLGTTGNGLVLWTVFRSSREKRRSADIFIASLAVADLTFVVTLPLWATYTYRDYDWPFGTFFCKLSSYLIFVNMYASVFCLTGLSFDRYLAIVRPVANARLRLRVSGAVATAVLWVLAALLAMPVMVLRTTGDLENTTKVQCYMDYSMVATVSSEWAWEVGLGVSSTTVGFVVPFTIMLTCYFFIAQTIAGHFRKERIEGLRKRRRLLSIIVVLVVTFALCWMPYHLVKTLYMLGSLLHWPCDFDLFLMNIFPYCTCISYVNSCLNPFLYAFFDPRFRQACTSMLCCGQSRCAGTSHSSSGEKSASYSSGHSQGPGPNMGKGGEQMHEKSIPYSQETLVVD
Format: biochemical
Experimental: The human APJ receptor was cloned by polymerase chain reaction and the gene encoding the receptor was subcloned in pFLAG-CMV™-3 expression vector (Sigma, Saint Louis, Mo. USA) in-house at Amgen. A GTPγS binding assay was performed on membranes prepared from CHO cells stably expressing human APJ receptor. The optimum experimental conditions for the concentrations of GDP, MgCl2, and NaCl in the assay buffer were initially determined. […] Incubation was at RT for 90 min and the microplate was read using a ViewLux™ ultra HTS Microplate Imager (PerkinElmer, Inc.). All the results presented are means of several independent experiments and analyzed by non-linear regression methods using the commercially available program Prism (GraphPad, San Diego, Calif.) providing the EC50 values detailed in Table 28.
In the case of `COc1cccc(OC)c1-n1c(NS(=O)(=O)[C@H]2C[C@@H](O)CN(c3ncc(F)cn3)C2)nnc1-c1ccccc1` (mixture of isomers) [Example 53.0, (3R,5S)-N-(4-(2,6-dimethoxyphenyl)-5-phenyl-4H-1,2,4-triazol-3-yl)-1-(5-fluoro-2-pyrimidinyl)-5-hydroxy-3-piperidinesulfonamide and (3S,5R)-N-(4-(2,6-dimethoxyphenyl)-5-phenyl-4H-1,2,4-triazol-3-yl)-1-(5-fluoro-2-pyrimidinyl)-5-hydroxy-3-piperidinesulfonamide], the pEC50 was 8.31. `COc1cccc(OC)c1-n1c(NS(=O)(=O)[C@@H](C)[C@H](OC)c2ncc(C)cn2)nnc1-c1cccc([C@](C)(O)C(F)(F)F)c1` (mixture of isomers) [Example 88.0, (1R,2S)—N-(4-(2,6-Dimethoxyphenyl)-5-(3-((1S)-2,2,2-trifluoro-1-hydroxy-1-methylethyl)phenyl)-4H-1,2,4-triazol-3-yl)-1-methoxy-1-(5-methyl-2-pyrimidinyl)-2-propanesulfonamide and (1R,2S)—N-(4-(2,6-dimethoxyphenyl)-5-(3-((1R)-2,2,2-trifluoro-1-hydroxy-1-methylethyl)phenyl)-4H-1,2,4-triazol-3-yl)-1-methoxy-1-(5-methyl-2-pyrimidinyl)-2-propanesulfonamide] was tested, and the pEC50 was 7.64. In the case of `COc1cccc(OC)c1-n1c(NS(=O)(=O)[C@@H](C)Cc2ncc(F)cn2)nnc1-c1ccccc1` (single isomer, unassigned) [Example 8.0, (2S)-N-(4-(2,6-dimethoxyphenyl)-5-phenyl-4H-1,2,4-triazol-3-yl)-1-(5-fluoro-2-pyrimidinyl)-2-propanesulfonamide or (2R)-N-(4-(2,6-dimethoxyphenyl)-5-phenyl-4H-1,2,4-triazol-3-yl)-1-(5-fluoro-2-pyrimidinyl)-2-propanesulfonamide], the pEC50 was 7.82. Work on `COc1ncnc(OC)c1-n1c(NS(=O)(=O)[C@@H](C)Cc2ncc(F)cn2)nnc1-c1ccccc1` (single isomer, unassigned) [Example 9.0, (2S)-N-(4-(4,6-dimethoxy-5-pyrimidinyl)-5-phenyl-4H-1,2,4-triazol-3-yl)-1-(5-fluoro-2-pyrimidinyl)-2-propanesulfonamide or (2R)-N-(4-(4,6-dimethoxy-5-pyrimidinyl)-5-phenyl-4H-1,2,4-triazol-3-yl)-1-(5-fluoro-2-pyrimidinyl)-2-propanesulfonamide] yielded a pEC50 of 7.40. `COc1ncnc(OC)c1-n1c(NS(=O)(=O)[C@@H](C)Cc2ncc(F)cn2)nnc1-c1ccccc1` (single isomer, unassigned) [Example 11.0, (2S)-N-(4-(4,6-dimethoxy-5-pyrimidinyl)-5-phenyl-4H-1,2,4-triazol-3-yl)-1-(5-fluoro-2-pyrimidinyl)-2-propanesulfonamide or (2R)-N-(4-(4,6-dimethoxy-5-pyrimidinyl)-5-phenyl-4H-1,2,4-triazol-3-yl)-1-(5-fluoro-2-pyrimidinyl)-2-propanesulfonamide] gave a pEC50 of 8.19. With `COc1cccc(OC)c1-n1c(NS(=O)(=O)[C@H]2CCCN(c3ncc(F)cn3)C2)nnc1-c1ccccc1` (single isomer, unassigned) [Example 21.0, (3S)—N-(4-(2,6-Dimethoxyphenyl)-5-phenyl-4H-1,2,4-triazol-3-yl)-1-(5-fluoro-2-pyrimidinyl)-3-piperidinesulfonamide or (3R)—N-(4-(2,6-dimethoxyphenyl)-5-phenyl-4H-1,2,4-triazol-3-yl)-1-(5-fluoro-2-pyrimidinyl)-3-piperidinesulfonamide] the pEC50 was 8.14. With `COc1cccc(OC)c1-n1c(NS(=O)(=O)[C@H]2CCCN(c3ncc(F)cn3)C2)nnc1-c1ccccc1` (single isomer, unassigned) [Example 22.0, (3S)—N-(4-(2,6-dimethoxyphenyl)-5-phenyl-4H-1,2,4-triazol-3-yl)-1-(5-fluoro-2-pyrimidinyl)-3-piperidinesulfonamide or (3R)—N-(4-(2,6-dimethoxyphenyl)-5-phenyl-4H-1,2,4-triazol-3-yl)-1-(5-fluoro-2-pyrimidinyl)-3-piperidinesulfonamide] the pEC50 was 6.77. `COc1ccnc(OC)c1-n1c(NS(=O)(=O)[C@@H](C)[C@H](OC)c2ncc(C)cn2)nnc1-c1ccccc1` (single isomer, unassigned) [Example 23.0, (1R,2S,P)-N-(4-(2,4-dimethoxy-3-pyridinyl)-5-phenyl-4H-1,2,4-triazol-3-yl)-1-methoxy-1-(5-methyl-2-pyrimidinyl)-2-propanesulfonamide or (1R,2S,M)-N-(4-(2,4-dimethoxy-3-pyridinyl)-5-phenyl-4H-1,2,4-triazol-3-yl)-1-methoxy-1-(5-methyl-2-pyrimidinyl)-2-propanesulfonamide] was tested, and the pEC50 was 8.23. `COc1ccnc(OC)c1-n1c(NS(=O)(=O)[C@@H](C)[C@H](OC)c2ncc(C)cn2)nnc1-c1ccccc1` (single isomer, unassigned) [Example 24.0, (1R,2S,P)-N-(4-(2,4-dimethoxy-3-pyridinyl)-5-phenyl-4H-1,2,4-triazol-3-yl)-1-methoxy-1-(5-methyl-2-pyrimidinyl)-2-propanesulfonamide or (1R,2S,M)-N-(4-(2,4-dimethoxy-3-pyridinyl)-5-phenyl-4H-1,2,4-triazol-3-yl)-1-methoxy-1-(5-methyl-2-pyrimidinyl)-2-propanesulfonamide] showed a pEC50 of 9.57. `COc1ncnc(OC)c1-n1c(NS(=O)(=O)[C@H]2CCCN(c3ncc(F)cn3)C2)nnc1-c1ccccc1` (single isomer, unassigned) [Example 27.0, (3S)-N-(4-(4,6-dimethoxy-5-pyrimidinyl)-5-phenyl-4H-1,2,4-triazol-3-yl)-1-(5-fluoro-2-pyrimidinyl)-3-piperidinesulfonamide or (3R)-N-(4-(4,6-dimethoxy-5-pyrimidinyl)-5-phenyl-4H-1,2,4-triazol-3-yl)-1-(5-fluoro-2-pyrimidinyl)-3-piperidinesulfonamide] showed a pEC50 of 7.49. Work on `COc1ncnc(OC)c1-n1c(NS(=O)(=O)[C@H]2CCCN(c3ncc(F)cn3)C2)nnc1-c1ccccc1` (single isomer, unassigned) [Example 28.0, (3S)-N-(4-(4,6-dimethoxy-5-pyrimidinyl)-5-phenyl-4H-1,2,4-triazol-3-yl)-1-(5-fluoro-2-pyrimidinyl)-3-piperidinesulfonamide or (3R)-N-(4-(4,6-dimethoxy-5-pyrimidinyl)-5-phenyl-4H-1,2,4-triazol-3-yl)-1-(5-fluoro-2-pyrimidinyl)-3-piperidinesulfonamide] yielded a pEC50 of 6.39. `COc1ncnc(OC)c1-n1c(NS(=O)(=O)[C@H]2CCCN(c3ncc(C)cn3)C2)nnc1-c1ccccc1` (single isomer, unassigned) [Example 29.0, (S)—N-(4-(4,6-Dimethoxypyrimidin-5-yl)-5-phenyl-4H-1,2,4-triazol-3-yl)-1-(5-methylpyrimidin-2-yl)piperidine-3-sulfonamide or (R)—N-(4-(4,6-dimethoxypyrimidin-5-yl)-5-phenyl-4H-1,2,4-triazol-3-yl)-1-(5-methylpyrimidin-2-yl)piperidine-3-sulfonamide] was tested, and the pEC50 was 6.41. `COc1ncnc(OC)c1-n1c(NS(=O)(=O)[C@H]2CCCN(c3ncc(C)cn3)C2)nnc1-c1ccccc1` (single isomer, unassigned) [Example 30.0, (S)—N-(4-(4,6-Dimethoxypyrimidin-5-yl)-5-phenyl-4H-1,2,4-triazol-3-yl)-1-(5-methylpyrimidin-2-yl)piperidine-3-sulfonamide or (R)—N-(4-(4,6-dimethoxypyrimidin-5-yl)-5-phenyl-4H-1,2,4-triazol-3-yl)-1-(5-methylpyrimidin-2-yl)piperidine-3-sulfonamide] gave a pEC50 of 7.00. `COc1ncnc(OC)c1-n1c(NS(=O)(=O)[C@H]2CCCN(c3ncc(Cl)cn3)C2)nnc1-c1ccccc1` (single isomer, unassigned) [Example 31.0, (3S)-1-(5-chloro-2-pyrimidinyl)-N-(4-(4,6-dimethoxy-5-pyrimidinyl)-5-phenyl-4H-1,2,4-triazol-3-yl)-3-piperidinesulfonamide or (3R)-1-(5-chloro-2-pyrimidinyl)-N-(4-(4,6-dimethoxy-5-pyrimidinyl)-5-phenyl-4H-1,2,4-triazol-3-yl)-3-piperidinesulfonamide] showed a pEC50 of 6.47. In the case of `COc1ncnc(OC)c1-n1c(NS(=O)(=O)[C@H]2CCCN(c3ncc(Cl)cn3)C2)nnc1-c1ccccc1` (single isomer, unassigned) [Example 32.0, (3S)-1-(5-chloro-2-pyrimidinyl)-N-(4-(4,6-dimethoxy-5-pyrimidinyl)-5-phenyl-4H-1,2,4-triazol-3-yl)-3-piperidinesulfonamide or (3R)-1-(5-chloro-2-pyrimidinyl)-N-(4-(4,6-dimethoxy-5-pyrimidinyl)-5-phenyl-4H-1,2,4-triazol-3-yl)-3-piperidinesulfonamide], the pEC50 was 7.77. With `COc1cccc(OC)c1-n1c(NS(=O)(=O)[C@H]2CCCN(c3ncc(Cl)cn3)C2)nnc1-c1ccccc1` (single isomer, unassigned) [Example 34.0, (S)-1-(5-Chloropyrimidin-2-yl)-N-(4-(2,6-dimethoxyphenyl)-5-phenyl-4H-1,2,4-triazol-3-yl)piperidine-3-sulfonamide or (R)-1-(5-chloropyrimidin-2-yl)-N-(4-(2,6-dimethoxyphenyl)-5-phenyl-4H-1,2,4-triazol-3-yl)piperidine-3-sulfonamide] the pEC50 was 7.55. `COc1cccc(OC)c1-n1c(NS(=O)(=O)[C@H]2CCCN(c3ncc(Cl)cn3)C2)nnc1-c1ccccc1` (single isomer, unassigned) [Example 35.0, (S)-1-(5-Chloropyrimidin-2-yl)-N-(4-(2,6-dimethoxyphenyl)-5-phenyl-4H-1,2,4-triazol-3-yl)piperidine-3-sulfonamide or (R)-1-(5-chloropyrimidin-2-yl)-N-(4-(2,6-dimethoxyphenyl)-5-phenyl-4H-1,2,4-triazol-3-yl)piperidine-3-sulfonamide] showed a pEC50 of 6.55.

From US10906890B2, “Triazole phenyl compounds as agonists of the APJ receptor” (AMGEN INC., priority 2016, dated 2021)
